{"source": "patent US6410515B1", "about": "“Peptide, a method for its preparation and a pharmaceutical composition containing the peptide” (Immunotech Developments Inc., priority 1995, dated 2002)", "key": {"[1]": {"tested_on": "Splenic cells of the mice", "assay": "Concavalin A-stimulated proliferation of splenic cells (3H-thymidine)", "assay_type": "cell-based, Balb/c mice", "conditions": "48 h, control 61467", "protocol": "The biological effect of the D-iGlu-D-Trp (iDD) was studied in Balb/c mice. […] The preparation under study was added at the beginning of the culture. Concavalin A was used as a mitogen, in a final concentration of 2 μg per well. The plates were incubated at 37° C. and in 5% CO2 for 48 h. 3H-thymidine was incorporated into the cells in the amount of […], 24 h prior to the end of the culture. Proliferation of the cells was measured with the use of a scintillation c-counter and expressed in counts per minute (CPM)."}, "[2]": {"tested_on": "CFU-S in S-phase", "assay": "Thymidine suicide test on boosted (4 Gy) bone marrow", "assay_type": "in vivo, mice", "conditions": "for Average colony count: 4 Gy, per 10^5 injected bone marrow cells; for % CFU-S in S-phase: irradiation alone 55,0, intact control 10,5", "protocol": "The mechanism of the inhibiting effect of the peptide on hemopoiesis was studied using the “thymidine suicide” test. The method provides an accurate measurement of the percentage of dividing cells (in the S-phase of the cell cycle). A bone marrow suspension is incubated with 3H-thymidine, which kills cells in the S-phase.\nThe first series of experiments investigated the effect of the peptide on CFU-S proliferation. Such an assay can not be done with intact marrow since the progenitors proliferate very poorly (0 to 15% in a cycle) in intact bone marrow. Consequently, as a source of CFU-S, “boosted” bone marrow was used containing at least 40% proliferating cells. “Boosted” bone marrow was obtained from mouse bone marrow on the 7th day following radiation with a dose of 4 Gy. Donor mice were irradiated with this dose and 5 or 6 days later they received iDD. On day 7 following the irradiation, the bone marrow was examined for the percentage of dividing cells, i.e. the iDD treatment lasted 1 or 2 days. According to the results obtained, when injected two days before the extraction of bone marrow, the peptide inhibited the proliferation so that the percentage of dividing cells was even lower than in intact subjects. When the peptide was injected one day before bone marrow was taken, no effect was observed (Table 7).\nTable 7 illustrates the effect of the peptide on cell proliferation in irradiated (4 Gy) bone marrow."}, "[3]": {"tested_on": "patients with cytopenias of immune origin", "assay": "Clinical study: blood indices and lymphocyte subpopulations", "assay_type": "in vivo", "conditions": "for CD4+/CD8+ ratio After iDD treatment: normal 0.7-3.3; for % of cells After iDD treatment: CD4−CD8+ T-Suppressers: normal 18.9-47.9; for % of cells After iDD treatment: CD4+CD8− T-helpers: normal 31.4-63.8", "protocol": "The peptide iDD was given to patients with cytopenias of immune origin and its effect on hemopoietic status was assessed using a number of immunological tests characterising both humoral and cellular immunity.\nThe iDD was administered 0.1 mg in a 1 ml dose intranasally (once or twice in divided doses) for 5 days. The regime was repeated after a two week interval. For patients receiving steroids and cytostatics, iDD was administered during the therapy or before the cytostatic treatment.\nBelow are cited the examples of indices dynamics in some patients."}, "[4]": {"tested_on": "hyperthermic bone marrow cells (CFU-S)", "assay": "Survival of CFU-S of bone marrow after heating at 42° C.", "assay_type": "cell-based", "protocol": "Hyperthermia is used in the treatment of various cancer types. When treating leukosis, the damaged bone marrow cells are heated at approximately 41-42° C. in order to kill malignant cells as they are more sensitive to heat. However, some non-malignant stem cells may also be affected. Consequently, the ability of the iDD peptide to protect cells during hyperthermia was tested. A suspension of the bone marrow, previously incubated for 1 hour at 37° C. in the presence of iDD (0.2 μg/4×10^6 cells), was heated for 30 minutes at 42° C. It was then diluted until the necessary concentration was reached and transplanted to the lethally radiated recipients The quantity of the exogenous colonies in the spleen was determined on the ninth day. […] The decrease of the colony formation under the action of iDD is not critical, because its colony-inhibiting action is reversible."}, "[5]": {"tested_on": "allogenic bone marrow (C57B1 donor, F1 (CBA×C57B1) recipient)", "assay": "Taking of allogenic bone marrow transplant and survival", "assay_type": "in vivo, mice", "protocol": "The preparations were administered daily for the first 5 days after transplantation of bone marrow transplants of donor mice C57B1 to lethally irradiated recipient mice F1 (CBA×C57B1), starting from the 1st hour after the transplantation."}, "[6]": {"assay": "Solubility of the peptide", "assay_type": "physicochemical", "text": "The resulting peptide has the following physical and chemical properties and characteristics: […]"}}, "data": [{"substance": "H-D-iGlu-D-Trp-OH [iDD]", "values": [{"measurement": "CPMI (proliferation, 3H-thymidine)", "setting": "[1]; Preparation dose 1 μcg/ml", "value": 68594, "unit": "CPM"}, {"measurement": "CPMI (proliferation, 3H-thymidine)", "setting": "[1]; Preparation dose 5 μcg/ml", "value": 63428, "unit": "CPM"}, {"measurement": "CPMI (proliferation, 3H-thymidine)", "setting": "[1]; Preparation dose 10 μcg/ml", "value": 20043, "unit": "CPM"}, {"measurement": "CPMI (proliferation, 3H-thymidine)", "setting": "[1]; Preparation dose 20 μcg/ml", "value": 13222, "unit": "CPM"}, {"measurement": "Average colony count", "setting": "[2]; iDD 1 day before marrow extraction, + 3H", "value": "5,8 ± 0,5"}, {"measurement": "Average colony count", "setting": "[2]; iDD 1 day before marrow extraction, without 3H", "value": "8,3 ± 0,4"}, {"measurement": "% CFU-S in S-phase", "setting": "[2]; iDD 1 day", "value": "50,6%"}, {"measurement": "Average colony count", "setting": "[2]; iDD 2 days before marrow extraction, + 3H", "value": "2,8 ± 0,2"}, {"measurement": "Average colony count", "setting": "[2]; iDD 2 days before marrow extraction, without 3H", "value": "3,5 ± 0,2"}, {"measurement": "% CFU-S in S-phase", "setting": "[2]; iDD 2 days", "value": "5,8%"}, {"measurement": "Absolute count after iDD: CD3−CD16,56+ nat. killers", "setting": "[3]; Patient A, before 0.164", "value": 0.108, "unit": "bln/l"}, {"measurement": "Absolute count after iDD: CD3+HLA−DR+ activated T-lymphocytes", "setting": "[3]; Patient A, before 0.388", "value": 0.251, "unit": "bln/l"}, {"measurement": "Absolute count after iDD: CD4−CD8+ T-Suppressers", "setting": "[3]; Patient A, before 0.657", "value": 0.305, "unit": "bln/l"}, {"measurement": "Absolute count after iDD: CD4+CD8− T-helpers", "setting": "[3]; Patient A, before 0.769", "value": 0.522, "unit": "bln/l"}, {"measurement": "Absolute count after iDD: CD45++CD14− lymphocytes", "setting": "[3]; Patient A, before 1.6", "value": 0.9, "unit": "bln/l"}, {"measurement": "Haemoglobin content", "setting": "[3]; Patient A, iDD, no steroids", "value": 106, "unit": "g/L"}, {"measurement": "CD4+/CD8+ ratio After iDD treatment", "setting": "[3]; Patient A, test sample 1.2", "value": 1.7}, {"measurement": "% of cells After iDD treatment: CD45+CD14+ monocytes", "setting": "[3]; Patient A, test sample 6.1", "value": 3.3, "unit": "%"}, {"measurement": "% of cells After iDD treatment: CD3−CD16,56+ nat. killers", "setting": "[3]; Patient A, test sample 10.3", "value": 12.0, "unit": "%"}, {"measurement": "% of cells After iDD treatment: CD3+HLA−DR+ activated T-lymphocytes", "setting": "[3]; Patient A, test sample 24.3, normal 2.8-17.3", "value": 27.9, "unit": "%"}, {"measurement": "% of cells After iDD treatment: CD45++CD14− lymphocytes", "setting": "[3]; Patient A, test sample 33.2", "value": 34.8, "unit": "%"}, {"measurement": "% of cells After iDD treatment: CD4−CD8+ T-Suppressers", "setting": "[3]; Patient A, test sample 41.1", "value": 33.9, "unit": "%"}, {"measurement": "% of cells After iDD treatment: CD45+CD14− granulocytes", "setting": "[3]; Patient A, test sample 41.4", "value": 48.5, "unit": "%"}, {"measurement": "% of cells After iDD treatment: CD4+CD8− T-helpers", "setting": "[3]; Patient A, test sample 48.1", "value": 58.0, "unit": "%"}, {"measurement": "Absolute count after iDD: CD3−CD16,56+ nat. killers", "setting": "[3]; Patient K, before 0.057", "value": 0.054, "unit": "bln/l"}, {"measurement": "Absolute count after iDD: CD4+CD8− T-helpers", "setting": "[3]; Patient K, before 0.614", "value": 0.393, "unit": "bln/l"}, {"measurement": "Absolute count after iDD: CD4−CD8+ T-Suppressers", "setting": "[3]; Patient K, before 0.712", "value": 0.510, "unit": "bln/l"}, {"measurement": "Absolute count after iDD: CD45++CD14− lymphocytes", "setting": "[3]; Patient K, before 1.68", "value": 1.09, "unit": "bln/l"}, {"measurement": "CD4+/CD8+ ratio After iDD treatment", "setting": "[3]; Patient K, test sample 0.8", "value": 0.8}, {"measurement": "% of cells After iDD treatment: CD3−CD16,56+ nat. killers", "setting": "[3]; Patient K, test sample 3.4, normal 4.8-26.7", "value": 5.0, "unit": "%"}, {"measurement": "% of cells After iDD treatment: CD45+CD14+ monocytes", "setting": "[3]; Patient K, test sample 5.3", "value": 5.2, "unit": "%"}, {"measurement": "% of cells After iDD treatment: CD45++CD14− lymphocytes", "setting": "[3]; Patient K, test sample 26.0", "value": 20.2, "unit": "%"}, {"measurement": "% of cells After iDD treatment: CD4+CD8− T-helpers", "setting": "[3]; Patient K, test sample 36.3", "value": 36.1, "unit": "%"}, {"measurement": "% of cells After iDD treatment: CD4−CD8+ T-Suppressers", "setting": "[3]; Patient K, test sample 44.5", "value": 46.8, "unit": "%"}, {"measurement": "% of cells After iDD treatment: CD45+CD14− granulocytes", "setting": "[3]; Patient K, test sample 55.8", "value": 74.7, "unit": "%"}, {"measurement": "Medium quantity of colonies", "setting": "[4]; iDD 0.2 μg/4×10^6 cells + heating 30 minutes at 42° C., control + heating 5.9 ± 0.6", "value": "6.9 ± 0.6"}, {"measurement": "Medium quantity of colonies", "setting": "[4]; iDD 0.2 μg/4×10^6 cells, no heating, control 11.4 ± 0.4", "value": "6.0 ± 0.6"}, {"measurement": "Survival of CFU-S, %", "setting": "[4]; iDD + heating, control + heating 51.7", "value": 115, "unit": "%"}, {"measurement": "Survival of CFU-S, %", "setting": "[4]; iDD, no heating (reference)", "value": 100, "unit": "%"}, {"measurement": "CFU-S taking root, %", "setting": "[5]; C57B1 marrow to F1, Cyclosporin A 25μg/kg sc, iDD 10μg/kg ip, untreated 17,3", "value": 43, "unit": "%"}, {"measurement": "Average colony count", "setting": "[5]; C57B1 marrow to F1, daily 5 days, Cyclosporin A 25μg/kg sc, iDD 10μg/kg ip, per 10^5 cells, untreated 1,7 ± 0,3", "value": "4,2 ± 0,3"}, {"measurement": "MCL (Medium continuation of life)", "setting": "[5]; after 42 days, control 14,3", "value": "6,0"}, {"measurement": "Survived mice, %", "setting": "[5]; after 42 days, control 50", "value": 93, "unit": "%"}, {"measurement": "Solubility in alcohol", "setting": "[6]; alcohol", "value": "moderately soluble"}, {"measurement": "Solubility in chloroform", "setting": "[6]; chloroform", "value": "insoluble"}, {"measurement": "Solubility in water", "setting": "[6]; water", "value": "readily soluble"}]}]}
